From US8680094B2, “1, 4-benzoxazine compounds and derivatives thereof as therapeutic drugs for the treatment of neurodegenerative conditions” (Board of Regents, The University of Texas System, priority 2008, dated 2014)
“And” between values parts separate entries of the source, which are not always exact repeats. Equal entries are not always repeated. “Also recorded” adds a separate entry of the source.

Tests used:
Type in all cases: cell-based, rat
phospho-ERK = test: Western blot of signaling proteins in LK-treated cerebellar granule neurons: phospho-ERK; settings: LK medium with compound, 3 h
Description: (§1) Cultures of cerebellar granule neurons were switched to HK medium, LK medium, or LK medium containing of HSB-13, HSB-22, or ASK-2a for 3 h. Total cell lysates were prepared and analyzed by Western blotting using antibodies against phospho-Akt (Ser473), phospho-MEK, phospho-ERK, and phospho-GSK3β.
(§2) The culture medium was removed and the cells were washed twice with ice-cold phosphate-buffered saline (PBS) and lysed in lysis buffer [1% Triton, 20 mM Tris-HCl (pH 7.5), 150 mM NaCl, 1 mM Na2EDTA, 1 mM EGTA, 2.5 mM sodium pyrophosphate, 1 mM beta-glycerophosphate, 1 mM Na3VO4, 1 μg/mL leupeptin and 1 protease inhibitor mixture]. Protein concentrations were measured and normalized using Bradford protein assay reagent (Bio-Rad, Hercules, Calif., USA). Following normalization, 40 μg of protein was subjected to Western blotting. Immunoreactivity was examined by enhanced chemiluminescence (Amersham Bioscience, Piscataway, N.J., USA).
(§3) Activation of MEK, ERK and Akt requires their phosphorylation, which can be detected using phospho-specific antibodies. As previously reported by the inventors and others (Chin et al., 2004; Johnson et al., 2005; Majdzadeh et al., 2008), MEK and ERK phosphorylation decreases following LK treatment of cerebellar granule neurons. This decrease is not prevented by HSB-13, HSB-22, or ASK-2a (FIG. 4). […] This is also not affected by treatment with ASK-2a or HSB-22 (FIG. 4).

c-jun = test: Western blot of c-jun expression in LK-treated cerebellar granule neurons; settings: 25 μM, 3 h
Description: Cerebellar neuron cultures were treated for 3 h with HK, LK, or LK medium containing 25 μM HSB-13, 25 μM ASK-2a, or 25 μM HSB-22. Whole cell lysates were then prepared and subjected to Western blot analysis using antibodies against c-jun and ATF-3.
as §2
C-jun expression is induced in a variety of tissue culture and in vivo paradigms of neuronal apoptosis (Schenkel et al., 2004). […] Treatment with HSB-13 inhibited c-jun expression even lower that that seen in HK-treated cultures. […] The suppression of ATF-3 expression using siRNA inhibits LK-mediated death of cerebellar granule neurons has been previously been described by the present inventors (Chen et al., 2008a). […] As observed with c-jun, the suppression was most robust with HSB-13. As a result these compositions can inhibit the activity of c-jun and ATF-3, which in turn play a role in treating cancer and oncoproteins like c-jun.

phospho-Akt (Ser473) = test: Western blot of signaling proteins in LK-treated cerebellar granule neurons: phospho-Akt (Ser473); settings: LK medium with compound
Description: as §1, §2, §3

[1] = tested on: cerebellar granule neurons; test: LK-induced death of cultured cerebellar granule neurons, viability by DAPI staining; settings: for protection against LK-induced neuronal death (FIG. 1): 25 μM, phase contrast microscopy, DAPI-staining, TUNEL-staining; for neuroprotection against LK-induced neuronal death, in words: overall over 1, 5 and 25 μM
Description: Culturing and treatments of cerebellar granule neurons: Granule neuron cultures were obtained from dissociated cerebella of 6-7 day old Wistar rats as described previously (D'Mello et al., 1993). Cells were plated in Basal Eagle's Medium (BME) supplemented with 10% fetal calf serum (FCS), 25 mM KCl, 2 mM glutamine (Invitrogen), and 100 μg/ml gentamycin in poly-L-lysine coated 24-well dishes at a density 1×10^6 cells/well. Cytosine arabinofuranoside (10 μM) was added to the culture medium 18-22 h after plating to prevent replication of nonneuronal cells. Previous immunocytochemical analyses by our lab and other investigators have shown that these cultures have high purity containing over 95% granule neurons (Thangnipon et al., 2003; Kingsbury et al., 2005).
The neuronal cultures were maintained for 7-8 days prior to treatment. For treatment, the cells were rinsed once and then maintained in low K+ medium (serum-free BME medium; referred to as LK), or in the case of control cultures, in high K+ medium (serum-free BME medium supplemented with 20 mM KCl; referred to as HK). For treatments, the chemical compounds (dissolved in dimethylsulfoxide) were added directly to LK medium at the time of the switch from HK at concentrations of 1, 5, or 25 μM. Viability was assessed 24 hours by 4′,6′-diamidino-2-phenylindole hydrochloride (DAPI) staining (see below). Each compound was tested in duplicate (at each of the concentrations) and the experiment repeated at least 3 times.
The viability status of neuronal cultures treated with HK, LK, or LK medium supplemented with various compounds was evaluated by phase contrast microscopy and quantified by staining cell nuclei with DAPI as previously described (Yalcin et al., 2003; Morrison et al., 2006; Majzadeh et al., 2007)). Briefly, the cells were fixed in 4% paraformaldehyde for 20 min at 4° C. After washing in phosphate buffered saline, diamidino-2-phenylindole hydrochloride (DAPI; 1 μg/ml in phosphate buffered saline) was added for 15 min at room-temperature and viewed under ultraviolet light (260 nm). Cells with condensed or fragmented nuclei were scored as dead. Viability has been expressed as percent of control cultures, which were switched to HK medium). Statistical analysis was performed using an unpaired, two-tailed Student's T test, compared to mean neuronal survival of control cultures receiving LK treatment.
When cultured cerebellar granule neurons are switched from HK to LK medium about 50% of the cells underwent apoptosis within 24 h (D'Mello et al., 1993). The inventors utilized this widely used and recognized model to test a total of 20 different 1,4-benzoxazine derivatives for their ability to protect against LK-induced neuronal death. Each compound was tested at 3 different doses—1 μM, 5 μM and 25 μM and viability quantified by DAPI-staining. The highest does was included to test for possible toxicity effects of the compounds. Key results were confirmed using TUNEL staining, another reliable assay of apoptosis (FIG. 1). As shown in Table 1 and FIG. 1, the present invention identifies several compounds with significant neuroprotective effect. Two of the most protective compounds are HSB-13 and HSB-22, both with Ar=3′,5′-dibromo-4′-hydroxyphenyl (FIG. 1). […] Protection with this compound is lower than that observed with HSB-13 and HSB-22 at the two lower doses. […] To examine whether a higher level of protection could be observed at doses lower than 1 μM, the analyses of these compounds was extended to doses of 0.5, 0.25, and 0.1 μM.
When cultured cerebellar granule neurons are switched to LK medium, about 50% of the cells undergo apoptosis within 24 h. In this study, a total of 20 different 1,4-benzoxazine derivatives of the structure shown in FIG. 1 were tested for their ability to protect against LK-induced death of cerebellar granule neurons. Each compound was tested at 3 different doses —1 μM, 5 μM and 25 μM. […]

[2] = Table 1, 5 μM in LK medium, 24 h, % of survival in control cultures in HK medium, LK alone 48%
[3] = Table 1, 25 μM in LK medium, 24 h, % of survival in control cultures in HK medium, LK alone 48%
[4] = Table 4, 1 μM in LK medium, % of survival in HK control cultures, LK alone 48.16±8.44%
[5] = Table 4, 5 μM in LK medium, % of survival in HK control cultures, LK alone 48.16±8.44%
[6] = Table 4, 25 μM in LK medium, % of survival in HK control cultures, LK alone 48.16±8.44%

Structure (SMILES) | LK-induced decrease of ERK phosphorylation (phospho-ERK) | induction of c-jun expression by LK (c-jun) | phosphorylation of Akt at Ser473 in LK (phospho-Akt (Ser473)) | protection against LK-induced neuronal death (FIG. 1) ([1]; 24 h) | % Survival ([1]; Table 1, 1 μM in LK medium, 24 h, % of survival in control cultures in HK medium, LK alone 48%) | % Survival [1, 2] | % Survival [1, 3] | neuroprotection against LK-induced neuronal death, in words [1] | % Survival [1, 4] | % Survival [1, 5] | % Survival [1, 6]
O=C1Nc2ccccc2OC1=Cc1cc(Br)c(O)c(Br)c1 [ASK-2a] | not prevented | inhibited | not affected | protective | 74.01 ± 6.93% | 80.84 ± 9.31 % | 95.12 ± 3.28 % | much higher neuroprotection than ASK2; also recorded: high level of neuroprotection; also recorded: effective in all the three concentrations |  |  | 
Nc1ccc2c(c1)NC(=O)/C(=C/c1cc(Br)c(O)c(Br)c1)O2 [HSB-13, (Z)-6-amino-2-(3,′5′-dibromo-4′-hydrozybenzylidene)-2H-benzo[b][1,4]oxazin-3(4H)-one] | not prevented | inhibited | inhibits Akt (Ser473) phosphorylation even more than that seen in LK | protective |  | 100.2 ± 2.25 % | 95.1 ± 5.06 % | highest neuroprotection; also recorded: effective in all the three concentrations | 83.1 ± 4.53 % | 100.8% and 100.8 ± 0.07 % | 99.5% and 99.5 ± 1.56 %
O=C1Nc2cc(Cl)ccc2O/C1=C\c1cc(Br)c(O)c(Br)c1 [HSB-22] | not prevented | inhibited | not affected | protective |  | 87.54 ± 8.83 % | 91.24 ± 9.03 % | effective in all the three concentrations | 92% and 91.9 ± 1.98 % | 97% and 96.7 ± 2.96 % | 90.6% and 90.6 ± 0.84 %
